Common to all, as to assay type: in vivo, male C57/BL mice
The subject of one assay is iba1. Description: iba1 protein Western blot in brain tissue. The note with it: for iba1 protein expression reduced compared with MCAO group: three days of administration, compound 2 100 mg/kg, compound 1 50 mg/kg. On the procedure:
(§1) Grouping and administration method: Male C57/BL mice weighing 23±1 g were randomly divided into sham operation group (SHAM), model group (MCAO), compound 2 group (100 mg/kg), and compound 1 group (50 mg/kg), with 10 mice in each group. Mice in the SHAM group underwent vascular isolation, but no […] was administered, and no treatment was given before or after surgery. The model group mice were constructed with MCAO models and were not treated before and after surgery. The treatment group was treated with compound 2 or compound 1 on the basis of the model group. Mice with a neurological score of 0 after reperfusion and those that died before 72 hours post-surgery were excluded. The administration time for animal behavior tests was seven times at 0 h, 1 day, 2 days, 3 days, 4 days, 5 days, and 6 days after reperfusion, while the administration time for other experiments was three times at 0 h, 1 day, and 2 days after reperfusion. The drug was administered through the tail vein, and the sham operation group and model group were given equal amounts of saline.
The expression level of the specific protein iba1 in microglia in brain tissues was detected by Western blot. (A) The representative WB images of iba1 protein expression in brain tissues of the sham operation group (SHAM), model group (MCAO), compound 2 group, and compound 1 group are shown in FIG. 8A, and the quantitative statistical results are shown in FIG. 8B. […] Compared with the MCAO group, the expression of iba1 protein decreased three days after administration of compound 1. Compared with the compound 1 group, the expression level of iba1 protein in the compound 2 group decreased. In this experiment, β-actin was used as the internal reference protein. n=3, data are presented as mean±SEM, analyzed with one-way ANOVA, and subjected to Tukey's HSD test. *P<0.05, **P<0.01, ***P<0.001. ^#P<0.05, ^##P<0.01, ^###P<0.001. * indicates comparison with the SHAM group, ^# indicates a comparison with the Compound 2 group.

A further assay relates to GFAP. Description: GFAP immunofluorescence in brain tissue (astrocytes). To be noted: 72 h ischemia-reperfusion, three days of administration; compound 2 100 mg/kg, compound 1 50 mg/kg; MCAO group 481±67; mean±SEM, n=3. On the procedure: as §1, with “The administration time for animal behavior tests was seven times at 0 h, 1 day, 2 days, 3 days, 4 days, 5 days, and 6 days after reperfusion, while the administration time for other experiments was three times at 0 h, 1 day, and 2 days after reperfusion. The drug was administered through the tail vein, and the sham operation group and model group were given equal amounts of saline.” left out
To investigate whether compound 2 has an effect on the activation and proliferation of astrocytes during ischemia-reperfusion, this study used immunofluorescence experiments to observe and detect the fluorescence expression of GFAP in brain tissues from the sham operation group, model group, compound 2 group, and compound 1 group. […] After 72 hours of ischemia-reperfusion, the activation and proliferation of GFAP protein in astrocytes in the brain region were analyzed by immunofluorescence staining. […]

The next assay has as its system HIF-1α. Description: HIF-1α immunofluorescence in brain tissue. The note with it: 72 h ischemia-reperfusion, three days of administration; compound 2 100 mg/kg, compound 1 50 mg/kg; MCAO group 568±60; mean±SEM, n=3. On the procedure:
as §1, with “The administration time for animal behavior tests was seven times at 0 h, 1 day, 2 days, 3 days, 4 days, 5 days, and 6 days after reperfusion, while the administration time for other experiments was three times at 0 h, 1 day, and 2 days after reperfusion. The drug was administered through the tail vein, and the sham operation group and model group were given equal amounts of saline.” left out
After 72 hours of ischemia-reperfusion, the expression changes of the inflammatory factor HIF-1α in the brain region were analyzed by immunofluorescence staining. […] Compared with the compound 1 group, the number of HIF-1α-positive cells in the compound 2 group was lower (197±33 vs 250±54/mm^2, P<0.001). n=3, data are presented as mean±SEM, analyzed using one-way ANOVA, and subjected to Tukey's HSD test. *P<0.05, **P<0.01, ***P<0.001. ^#P<0.05, ^##P<0.01, ^###P<0.001. * indicates a comparison with the MCAO group, ^# indicates comparison with the compound 2 group.

The next assay concerns iNOS. Description: RT-qPCR of iNOS mRNA in brain tissue. To be noted: 72 h, three days of administration, compound 2 100 mg/kg, compound 1 50 mg/kg, P<0.05. As for the experimental part:
as §1, with “The administration time for animal behavior tests was seven times at 0 h, 1 day, 2 days, 3 days, 4 days, 5 days, and 6 days after reperfusion, while the administration time for other experiments was three times at 0 h, 1 day, and 2 days after reperfusion. The drug was administered through the tail vein, and the sham operation group and model group were given equal amounts of saline.” left out
(§2) To investigate the effect of compounds on the expression of inflammatory factors after ischemia-reperfusion, this study used immunofluorescence experiments to observe the expression of TNF-α, IL-1β, IL-6, iNOS, and COX2 proteins in brain tissue. […] The concentrations of TNF-α, IL-1β, and IL-6 in brain homogenate were detected by enzyme-linked immunosorbent assay (ELISA), and the expression level of TNF-α protein in brain tissue was detected by Western blot.
(§3) After 72 hours of ischemia-reperfusion, the mRNA expression levels of TNF-α, IL-1β, IL-6, iNOS, and COX2 in brain tissue were detected and analyzed by RT-qPCR. […]

In a further assay the test system is TNF-α. Description: TNF-α immunofluorescence in brain tissue. The note with it: 72 h ischemia-reperfusion; compound 2 100 mg/kg, compound 1 50 mg/kg; MCAO group 361±48; mean±SEM, n=3. As for the experimental part: as §1, with “The administration time for animal behavior tests was seven times at 0 h, 1 day, 2 days, 3 days, 4 days, 5 days, and 6 days after reperfusion, while the administration time for other experiments was three times at 0 h, 1 day, and 2 days after reperfusion. The drug was administered through the tail vein, and the sham operation group and model group were given equal amounts of saline.” left out
as §2
After 72 hours of ischemia-reperfusion, the expression changes of inflammatory factors such as TNF-α, IL-1β, IL-6, iNOS, and COX2 in brain regions were analyzed by immunofluorescence staining. […]

The subject of another assay is IL-6. Description: RT-qPCR of IL-6 mRNA in brain tissue. To be noted: 72 h, three days of administration, compound 2 100 mg/kg, P<0.01. As for the experimental part:
as §1, with “The administration time for animal behavior tests was seven times at 0 h, 1 day, 2 days, 3 days, 4 days, 5 days, and 6 days after reperfusion, while the administration time for other experiments was three times at 0 h, 1 day, and 2 days after reperfusion. The drug was administered through the tail vein, and the sham operation group and model group were given equal amounts of saline.” left out
as §2, §3

Each structure is given as a SMILES string.

As to `O=C(O)c1cc(O)ccc1O` [compound 1], the “iba1 protein expression reduced compared with MCAO group” value with iba1 is given as “decreased”. Further, the “Number of GFAP-positive cells” value in the assay on GFAP is reported as 327±50 /mm^2. For the same compound, the “Number of HIF-1α-positive cells” value in the assay on HIF-1α is given as 250±54 /mm^2. The “iNOS mRNA expression compared with MCAO group” value in the assay on iNOS was “significantly reduced”. Besides, the “Number of TNF-α-positive cells” value in the assay on TNF-α is 244±36 /mm^2.
Take `O=C(O)c1cc(OP(=O)(O)O)ccc1OP(=O)(O)O` [compound 2]: the “iba1 protein expression level compared with the compound 1 group” value with iba1 (compound 2 100 mg/kg vs compound 1 50 mg/kg) was “decreased”. In the assay with iba1, the “iba1 protein expression reduced compared with MCAO group” value amounted to 50±12%. The “Number of GFAP-positive cells” value with GFAP is given as 195±45 /mm^2. Further, the “Number of HIF-1α-positive cells” value in the assay with HIF-1α is 197±33 /mm^2. In the assay with iNOS, the “iNOS mRNA expression compared with MCAO group” value is “significantly reduced”. The “Number of TNF-α-positive cells” value in the assay with TNF-α is 140±35 /mm^2. In addition, the “Decrease of IL-6 mRNA expression compared with MCAO group” value with IL-6 came out at 51±8%.
